Data from patent US8481525B2, “Kinase inhibitors and method of treating cancer with same” (University of Health Network, priority 2009, dated 2013).
Read-outs that look alike come from different tables or passages of the source.

How the values were obtained:
[1] = system: A549 lung cancer cell line; experiment: Cell growth inhibition, Sulforhodamine B assay (SRB); assay type: cell-based; settings: Homo sapiens, 120 h; A549 lung cancer cell line; 5 days culture; SRB; read-out: Cell Line GI50 Range A-549
Procedure, shortened: (§1)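 Cells were exposed to compound for 5 days, then fixed in situ with cold 10% TCA and stained with sulforhodamine B, with absorbance read at 570 nm.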

[2] = system: HCC1954 basal breast cancer cell line; experiment: as above; assay type: cell-based; settings: Homo sapiens, HCC1954, 120 h, read-out: Cell Line GI50 Range HCC-1954
Procedure, shortened: as §1

[3] = system: MCF-7 luminal breast cancer cell line; experiment: as above; assay type: cell-based; settings: Homo sapiens, MCF7, 120 h; MCF-7 luminal breast cancer cell line; 5 days culture; SRB; read-out: Cell Line GI50 Range MCF-7
Procedure, shortened: as §1

[4] = system: MDA-MB-468 basal breast cancer cell line; experiment: as above; assay type: cell-based; settings: Homo sapiens, 120 h; MDA-MB-468 basal breast cancer cell line; 5 days culture; SRB; read-out: Cell Line GI50 Range MDA-MB-468
Procedure, shortened: as §1

[5] = system: SW620 colon cancer cell line; experiment: as above; assay type: cell-based; settings: Homo sapiens, SW-620, 120 h, 5 days culture, SRB
Procedure, shortened: as §1

[6] = system: human mammary epithelial primary cells (HMEC); experiment: as above; settings: 120 h, read-out: Cell Line GI50 Range HMEC
Experimental: The cells were cultured for 5 days before the Sulforhodamine B assay (SRB) was performed to determine the compound's cell growth inhibition activity.
Sulforhodamine B (purchased from Sigma, Oakville, ON, Canada) is a water-soluble dye that binds to the basic amino acids of the cellular proteins. Thus, colorimetric measurement of the bound dye provides an estimate of the total protein mass that is related to the cell number. the cells are fixed in situ by gently aspirating off the culture media and adding 50 μl ice cold 10% Trichloroacetic Acid (TCA) per well and incubate at 4° C. for 30-60 min, The plates are washed with water five times and allowed to air dry for 5 min. […] Following staining, plates are washed four times with 1% acetic acid to remove unbound dye and then allowed to air dry for 5 min. […] Absorbance is read at 570 nm.
The percentage (%) of relative growth inhibition was calculated by comparing to DMSO treated only cells (100%). GI50's were determined for compounds with cytotoxic activity. The GI50 was calculated using GraphPad PRISM software (GraphPad Software, Inc., San Diego, Calif., USA).

AMPKalpha = experiment: CEREP HTRF kinase selectivity assay; assay type: biochemical, human
Experimental: (§2) The inhibitory activity of selected compounds of the invention was evaluated against a panel of 45 different kinase enzymes by CEREP, France. The assays were performed using standard HTRF assay methods as documented by CEREP against the human orthologues of Ab1 kinase, Akt1/PKBa, AMPKa, BMX kinase (Etk), Brk, CaMK2a, CaMK4, CDC2/CDK1 (cycB), CHK1, CHK2, c-Met kinase, CSK, EphB4 kinase, ERKI, ERK2 (P42mapk), FGFR2 kinase, FGFR4 kinase, FLT-1 kinase (VEGFR1), FLT-3 kinase, Fyn kinase, 1GF1R kinase, IRK (InsR), JNK 2, KDR kinase (VEGFR2), Lck kinase, Lyn kinase, MAPKAPK2, MEK1/MAP2K1, p38a kinase, p38d kinase, p38 g kinase, PDGFRb kinase, PDKI, PKA, PKCa, PKCb1, PKCb2, PKCg, Ret kinase, ROCK2, RSK2, Src kinase, Syk, and TRKA (Table 3). The % Inhibition was determined by the formula; % Inhibition=100×(1−(experimental value−background value)/(high activity control−background value)).

FLT-3 = FLT-3 (Homo sapiens, UniProt P36888); experiment: CEREP HTRF kinase selectivity assay; assay type: biochemical; settings: FLT-3, 10 uM
FLT-3, sequence (P36888 27-993): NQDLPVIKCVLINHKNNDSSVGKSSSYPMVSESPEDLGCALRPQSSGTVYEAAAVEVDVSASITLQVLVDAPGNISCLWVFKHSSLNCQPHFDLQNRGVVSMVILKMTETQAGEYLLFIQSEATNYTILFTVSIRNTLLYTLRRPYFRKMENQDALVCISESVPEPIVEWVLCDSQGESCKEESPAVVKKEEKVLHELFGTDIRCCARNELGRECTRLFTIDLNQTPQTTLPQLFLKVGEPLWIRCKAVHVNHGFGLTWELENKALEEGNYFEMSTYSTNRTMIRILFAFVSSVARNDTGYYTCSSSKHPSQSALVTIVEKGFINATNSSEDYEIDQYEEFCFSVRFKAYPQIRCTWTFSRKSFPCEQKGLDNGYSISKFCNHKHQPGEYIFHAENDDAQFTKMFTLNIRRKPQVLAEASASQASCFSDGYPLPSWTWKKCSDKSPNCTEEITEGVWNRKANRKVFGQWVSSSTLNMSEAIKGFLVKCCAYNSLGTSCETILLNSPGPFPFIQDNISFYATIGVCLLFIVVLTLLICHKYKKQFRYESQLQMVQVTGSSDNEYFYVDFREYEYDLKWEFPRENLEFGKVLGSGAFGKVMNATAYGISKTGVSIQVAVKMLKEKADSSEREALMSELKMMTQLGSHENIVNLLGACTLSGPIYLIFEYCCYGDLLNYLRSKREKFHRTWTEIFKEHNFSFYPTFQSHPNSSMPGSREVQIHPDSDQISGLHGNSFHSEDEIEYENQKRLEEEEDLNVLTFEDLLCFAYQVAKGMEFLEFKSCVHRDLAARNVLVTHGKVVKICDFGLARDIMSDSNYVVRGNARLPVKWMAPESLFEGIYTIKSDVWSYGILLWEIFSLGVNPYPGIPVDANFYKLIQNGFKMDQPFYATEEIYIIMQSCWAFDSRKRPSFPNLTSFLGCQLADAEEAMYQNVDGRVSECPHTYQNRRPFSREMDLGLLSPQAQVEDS
Experimental: (§3) The inhibitory activity of selected compounds of the invention was evaluated against a panel of 45 different kinase enzymes by CEREP, France. […] The % Inhibition was determined by the formula; % Inhibition=100×(1−(experimental value−background value)/(high activity control−background value)).

KDR (VEGFR2) = KDR (VEGFR2) (Homo sapiens, UniProt P35968); experiment: CEREP HTRF kinase selectivity assay; assay type: biochemical
KDR (VEGFR2), sequence (P35968 20-1356): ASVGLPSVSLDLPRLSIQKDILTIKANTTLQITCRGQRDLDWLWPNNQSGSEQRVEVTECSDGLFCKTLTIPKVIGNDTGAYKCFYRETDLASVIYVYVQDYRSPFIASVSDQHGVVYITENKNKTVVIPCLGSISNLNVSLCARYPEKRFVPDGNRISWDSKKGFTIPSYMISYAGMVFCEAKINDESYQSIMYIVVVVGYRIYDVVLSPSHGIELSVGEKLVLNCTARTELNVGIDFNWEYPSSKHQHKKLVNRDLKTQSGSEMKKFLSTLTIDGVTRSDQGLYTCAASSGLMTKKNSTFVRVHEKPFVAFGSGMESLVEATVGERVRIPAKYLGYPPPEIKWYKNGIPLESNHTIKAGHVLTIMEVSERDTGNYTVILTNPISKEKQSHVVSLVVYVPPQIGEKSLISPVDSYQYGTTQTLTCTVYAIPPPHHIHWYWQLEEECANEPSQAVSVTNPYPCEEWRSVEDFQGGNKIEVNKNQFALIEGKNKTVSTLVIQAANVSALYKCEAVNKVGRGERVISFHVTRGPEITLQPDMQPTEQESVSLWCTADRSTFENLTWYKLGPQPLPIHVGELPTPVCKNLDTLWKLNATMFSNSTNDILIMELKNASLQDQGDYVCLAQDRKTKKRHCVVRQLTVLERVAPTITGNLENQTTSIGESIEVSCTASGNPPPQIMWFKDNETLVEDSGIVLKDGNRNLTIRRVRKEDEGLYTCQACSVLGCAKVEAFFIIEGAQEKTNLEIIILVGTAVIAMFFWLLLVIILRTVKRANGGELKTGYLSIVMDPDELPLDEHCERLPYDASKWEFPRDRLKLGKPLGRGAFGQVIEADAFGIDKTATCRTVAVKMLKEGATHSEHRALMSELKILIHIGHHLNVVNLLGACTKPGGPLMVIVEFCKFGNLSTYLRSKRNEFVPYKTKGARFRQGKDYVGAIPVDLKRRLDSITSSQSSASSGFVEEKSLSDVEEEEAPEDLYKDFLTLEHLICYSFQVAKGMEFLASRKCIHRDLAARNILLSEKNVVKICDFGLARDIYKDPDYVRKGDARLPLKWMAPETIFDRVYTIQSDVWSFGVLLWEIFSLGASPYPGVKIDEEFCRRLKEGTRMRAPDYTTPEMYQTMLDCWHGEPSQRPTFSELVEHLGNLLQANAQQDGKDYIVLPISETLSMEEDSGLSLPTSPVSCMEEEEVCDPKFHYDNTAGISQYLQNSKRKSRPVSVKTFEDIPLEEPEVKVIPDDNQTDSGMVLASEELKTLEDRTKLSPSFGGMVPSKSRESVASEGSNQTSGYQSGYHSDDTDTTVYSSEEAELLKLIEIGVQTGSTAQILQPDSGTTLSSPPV
Experimental: as §3

Abl = molecular target: T1, Abl (Homo sapiens, UniProt P00519); experiment: CEREP HTRF kinase selectivity assay; assay type: biochemical
T1 construct: CEREP
Experimental: as §2

Akt1/PKBalpha = molecular target: T2, Akt1/PKBalpha (Homo sapiens, UniProt P31749); experiment: CEREP HTRF kinase selectivity assay; assay type: biochemical
T2 construct: CEREP
Experimental: as §2

BMX (Etk) = molecular target: T3, BMX (Etk) (Homo sapiens, UniProt P51813); experiment: CEREP HTRF kinase selectivity assay; assay type: biochemical
T3 construct: CEREP
Experimental: as §2

Brk = molecular target: T4, Brk (Homo sapiens, UniProt Q13882); experiment: CEREP HTRF kinase selectivity assay; assay type: biochemical
T4 construct: CEREP
Experimental: as §2

CDC2/CDK1 (cycB) = molecular target: T5, CDC2/CDK1 (cycB) (Homo sapiens, UniProt P06493); experiment: CEREP HTRF kinase selectivity assay; assay type: biochemical; settings: CDC2/CDK1, 10 uM
T5 construct: CEREP
Experimental: as §2

CHK1 = molecular target: T6, CHK1 (Homo sapiens, UniProt O14757); experiment: CEREP HTRF kinase selectivity assay; assay type: biochemical; settings: CHK1, 10 uM
T6 construct: CEREP
Experimental: as §2

CHK2 = molecular target: T7, CHK2 (Homo sapiens, UniProt O96017); experiment: CEREP HTRF kinase selectivity assay; assay type: biochemical; settings: CHK2, 10 uM
T7 construct: CEREP
Experimental: as §2

CSK = molecular target: T8, CSK (Homo sapiens, UniProt P41240); experiment: CEREP HTRF kinase selectivity assay; assay type: biochemical
T8 construct: CEREP
Experimental: as §2

CaMK4 = molecular target: T9, CaMK4 (Homo sapiens, UniProt Q16566); experiment: CEREP HTRF kinase selectivity assay; assay type: biochemical; settings: CaMK4, 10 uM
T9 construct: CEREP
Experimental: as §2

ERK (P42mapk) = molecular target: T10, ERK (P42mapk) (Homo sapiens, UniProt P28482); experiment: CEREP HTRF kinase selectivity assay; assay type: biochemical
T10 construct: CEREP
T10 sequence (P28482 whole entry): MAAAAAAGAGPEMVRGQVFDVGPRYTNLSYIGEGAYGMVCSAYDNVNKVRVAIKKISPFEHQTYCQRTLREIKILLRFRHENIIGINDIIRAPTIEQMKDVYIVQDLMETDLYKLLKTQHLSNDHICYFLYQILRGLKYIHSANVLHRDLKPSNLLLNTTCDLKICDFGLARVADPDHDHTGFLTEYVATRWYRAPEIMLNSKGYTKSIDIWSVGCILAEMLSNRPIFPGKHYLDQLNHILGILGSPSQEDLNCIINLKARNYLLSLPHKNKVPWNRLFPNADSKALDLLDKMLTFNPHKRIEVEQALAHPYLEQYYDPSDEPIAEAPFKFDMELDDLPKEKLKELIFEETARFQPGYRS
Experimental: as §2

ERK1 = molecular target: T11, ERK1 (Homo sapiens, UniProt P27361); experiment: CEREP HTRF kinase selectivity assay; assay type: biochemical; settings: ERK1, 10 uM
T11 construct: CEREP
Experimental: as §2

EphB4 = molecular target: T12, EphB4 (Homo sapiens, UniProt P54760); experiment: CEREP HTRF kinase selectivity assay; assay type: biochemical; settings: EphB4, 10 uM
T12 construct: CEREP
Experimental: as §2

FGFR4 = molecular target: T13, FGFR4 (Homo sapiens, UniProt P22455); experiment: CEREP HTRF kinase selectivity assay; assay type: biochemical; settings: FGFR4, 10 uM
T13 construct: CEREP
Experimental: as §2

Fyn = Fyn (Homo sapiens, UniProt P06241); experiment: CEREP HTRF kinase selectivity assay; assay type: biochemical
Experimental: as §2

IGF1R = IGF1R (Homo sapiens, UniProt P08069); experiment: CEREP HTRF kinase selectivity assay; assay type: biochemical
Experimental: as §2

IRK (InsR) = IRK (InsR) (Homo sapiens, UniProt P06213); experiment: CEREP HTRF kinase selectivity assay; assay type: biochemical
IRK (InsR), sequence (P06213 28-1382): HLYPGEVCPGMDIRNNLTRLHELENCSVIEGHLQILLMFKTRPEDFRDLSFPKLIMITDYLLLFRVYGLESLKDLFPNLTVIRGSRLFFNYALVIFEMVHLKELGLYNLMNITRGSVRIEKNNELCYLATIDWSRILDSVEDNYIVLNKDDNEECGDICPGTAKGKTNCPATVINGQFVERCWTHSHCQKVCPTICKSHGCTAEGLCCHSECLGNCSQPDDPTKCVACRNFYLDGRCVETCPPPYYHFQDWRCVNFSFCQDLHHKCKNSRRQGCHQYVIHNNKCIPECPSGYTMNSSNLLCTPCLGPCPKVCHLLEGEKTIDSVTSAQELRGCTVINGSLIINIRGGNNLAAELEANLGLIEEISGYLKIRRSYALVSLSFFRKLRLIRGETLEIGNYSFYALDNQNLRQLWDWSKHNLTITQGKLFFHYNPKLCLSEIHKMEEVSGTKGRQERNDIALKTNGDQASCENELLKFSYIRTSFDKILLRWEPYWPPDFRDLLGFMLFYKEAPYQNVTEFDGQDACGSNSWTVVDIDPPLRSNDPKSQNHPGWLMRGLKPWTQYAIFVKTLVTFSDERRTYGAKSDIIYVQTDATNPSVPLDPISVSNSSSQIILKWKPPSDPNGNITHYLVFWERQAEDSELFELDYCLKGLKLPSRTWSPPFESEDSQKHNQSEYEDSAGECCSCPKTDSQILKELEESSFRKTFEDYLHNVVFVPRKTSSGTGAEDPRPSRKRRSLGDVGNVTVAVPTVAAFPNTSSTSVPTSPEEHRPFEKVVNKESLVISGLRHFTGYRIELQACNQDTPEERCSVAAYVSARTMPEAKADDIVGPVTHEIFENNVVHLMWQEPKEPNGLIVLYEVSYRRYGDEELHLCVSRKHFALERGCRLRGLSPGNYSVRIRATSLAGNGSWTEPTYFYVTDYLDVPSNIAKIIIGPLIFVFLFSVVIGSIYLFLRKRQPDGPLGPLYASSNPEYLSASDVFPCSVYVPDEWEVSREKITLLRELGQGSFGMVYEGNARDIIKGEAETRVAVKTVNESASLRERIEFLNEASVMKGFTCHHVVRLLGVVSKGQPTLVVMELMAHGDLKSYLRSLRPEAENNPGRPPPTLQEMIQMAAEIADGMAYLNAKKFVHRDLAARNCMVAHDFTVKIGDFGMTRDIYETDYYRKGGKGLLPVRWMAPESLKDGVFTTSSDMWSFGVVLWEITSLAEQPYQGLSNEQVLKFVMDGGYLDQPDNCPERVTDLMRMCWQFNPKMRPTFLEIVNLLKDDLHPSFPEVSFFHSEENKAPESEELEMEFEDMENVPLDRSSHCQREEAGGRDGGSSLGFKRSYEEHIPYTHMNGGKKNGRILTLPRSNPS
Experimental: as §2

JNK 2 = JNK 2 (Homo sapiens, UniProt P45984); experiment: CEREP HTRF kinase selectivity assay; assay type: biochemical; settings: JNK 2, 10 uM
Experimental: as §2

Lck = Lck (Homo sapiens, UniProt P06239); experiment: CEREP HTRF kinase selectivity assay; assay type: biochemical
Experimental: as §2

Lyn = Lyn (Homo sapiens, UniProt P07948); experiment: CEREP HTRF kinase selectivity assay; assay type: biochemical
Lyn, sequence (P07948 whole entry): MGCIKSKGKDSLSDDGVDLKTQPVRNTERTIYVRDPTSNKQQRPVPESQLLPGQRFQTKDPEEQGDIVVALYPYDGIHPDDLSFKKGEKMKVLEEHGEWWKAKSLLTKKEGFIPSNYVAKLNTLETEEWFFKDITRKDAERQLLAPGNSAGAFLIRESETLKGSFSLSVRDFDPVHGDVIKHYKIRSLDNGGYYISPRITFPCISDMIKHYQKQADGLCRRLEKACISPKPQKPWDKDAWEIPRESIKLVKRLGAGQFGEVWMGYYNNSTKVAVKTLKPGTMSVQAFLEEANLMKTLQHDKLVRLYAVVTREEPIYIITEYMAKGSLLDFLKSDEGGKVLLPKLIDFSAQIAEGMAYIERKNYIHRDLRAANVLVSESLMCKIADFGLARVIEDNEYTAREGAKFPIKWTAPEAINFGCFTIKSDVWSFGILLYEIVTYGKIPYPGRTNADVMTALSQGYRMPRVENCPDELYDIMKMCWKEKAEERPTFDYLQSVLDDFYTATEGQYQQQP
Experimental: as §2

MAPKAPK2 = MAPKAPK2 (Homo sapiens, UniProt P49137); experiment: CEREP HTRF kinase selectivity assay; assay type: biochemical; settings: MAPKAPK2, 10 uM
Experimental: as §2

MEK1/MAP2K1 = MEK1/MAP2K1 (Homo sapiens, UniProt Q02750); experiment: CEREP HTRF kinase selectivity assay; assay type: biochemical; settings: MEK1/MAP2K1, 10 uM
Experimental: as §2

PDGFRbeta = PDGFRbeta (Homo sapiens, UniProt P09619); experiment: CEREP HTRF kinase selectivity assay; assay type: biochemical
Experimental: as §2

PDK1 = PDK1 (Homo sapiens, UniProt O15530); experiment: CEREP HTRF kinase selectivity assay; assay type: biochemical; settings: PDK1, 10 uM
Experimental: as §2

PKA = PKA (Homo sapiens, UniProt P17612); experiment: CEREP HTRF kinase selectivity assay; assay type: biochemical
Experimental: as §2

PKCalpha = PKCalpha (Homo sapiens, UniProt P17252); experiment: CEREP HTRF kinase selectivity assay; assay type: biochemical
Experimental: as §2

PKCbeta 1 = PKCbeta 1 (Homo sapiens, UniProt P05771); experiment: CEREP HTRF kinase selectivity assay; assay type: biochemical; settings: PKCbeta 1, 10 uM
Experimental: as §2

PKCbeta 2 = PKCbeta 2 (Homo sapiens, UniProt P05771); experiment: CEREP HTRF kinase selectivity assay; assay type: biochemical; settings: PKCbeta 2, 10 uM
Experimental: as §2

PKCgamma = PKCgamma (Homo sapiens, UniProt P05129); experiment: CEREP HTRF kinase selectivity assay; assay type: biochemical
Experimental: as §2

ROCK2 = ROCK2 (Homo sapiens, UniProt O75116); experiment: CEREP HTRF kinase selectivity assay; assay type: biochemical; settings: ROCK2, 10 uM
Experimental: as §2

RSK2 = RSK2 (Homo sapiens, UniProt P51812); experiment: CEREP HTRF kinase selectivity assay; assay type: biochemical; settings: RSK2, 10 uM
Experimental: as §2

Ret = Ret (Homo sapiens, UniProt P07949); experiment: CEREP HTRF kinase selectivity assay; assay type: biochemical
Experimental: as §2

Src = Src (Homo sapiens, UniProt P12931); experiment: CEREP HTRF kinase selectivity assay; assay type: biochemical
Src, sequence (P12931 whole entry): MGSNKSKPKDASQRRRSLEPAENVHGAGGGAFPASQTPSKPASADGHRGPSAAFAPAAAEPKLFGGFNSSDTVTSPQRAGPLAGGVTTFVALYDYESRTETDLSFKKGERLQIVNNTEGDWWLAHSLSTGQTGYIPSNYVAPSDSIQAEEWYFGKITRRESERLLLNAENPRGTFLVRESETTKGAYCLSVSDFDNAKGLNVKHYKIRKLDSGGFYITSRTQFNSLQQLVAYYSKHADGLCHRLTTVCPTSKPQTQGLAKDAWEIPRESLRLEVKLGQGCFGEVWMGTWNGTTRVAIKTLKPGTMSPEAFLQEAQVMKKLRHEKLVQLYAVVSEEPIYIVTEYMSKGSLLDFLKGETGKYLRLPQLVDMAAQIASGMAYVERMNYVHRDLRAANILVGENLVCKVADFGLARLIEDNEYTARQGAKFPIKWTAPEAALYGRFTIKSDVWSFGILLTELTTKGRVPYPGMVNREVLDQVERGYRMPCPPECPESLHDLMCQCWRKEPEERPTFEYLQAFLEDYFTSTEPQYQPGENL
Experimental: as §2

TRKA = molecular target: T14, TRKA (Homo sapiens, UniProt P04629); experiment: CEREP HTRF kinase selectivity assay; assay type: biochemical
T14 construct: CEREP, France (contract panel)
Experimental: as §2

c-Met = molecular target: T15, c-Met (Homo sapiens, UniProt P08581); experiment: CEREP HTRF kinase selectivity assay; assay type: biochemical
T15 construct: CEREP
Experimental: as §2

p38alpha = p38alpha (Homo sapiens, UniProt Q16539); experiment: CEREP HTRF kinase selectivity assay; assay type: biochemical
Experimental: as §2

p38delta = p38delta (Homo sapiens, UniProt O15264); experiment: CEREP HTRF kinase selectivity assay; assay type: biochemical
Experimental: as §2

p38gamma = p38gamma (Homo sapiens, UniProt P53778); experiment: CEREP HTRF kinase selectivity assay; assay type: biochemical
Experimental: as §2

HUV-EC-C cells = experiment: In Vitro Angiogenesis Assay (tube formation); settings: HUV-EC-C cells on ECMatrix, 4 hr; FIGS. 1 and 2

COc1ccc2c(c1)[C@@]1(C[C@@H]1c1ccc3c(/C=C/c4ccc(N5CCN(C(C)C)CC5)cc4)n[nH]c3c1)C(=O)N2 (racemic) [Example A189, (1R*,2S*)-(E)-2-(3-(4-(4-isopropylpiperazin-1-yl)styryl)-1H-indazol-6-yl)-5′-methoxyspiro[cyclopropane-1,3′-indolin]-2′-one 2,2,2-trifluoroacetate]
GI50 [1]: < 100 nM | GI50 ([2]; HCC1954 basal breast cancer cell line, 5 days culture, SRB): < 100 nM | GI50 [3]: < 100 nM | GI50 [4]: < 100 nM | GI50 ([5]; SW620 colon cancer cell line, read-out: Cell Line GI50 Range SW-620): < 100 nM | GI50 [6]: 1 to 10 µM

CN(C)Cc1ccc(/C=C/c2n[nH]c3cc([C@@H]4C[C@]45C(=O)Nc4ccccc45)ccc23)cc1 (racemic) [Example A26, (1R*,2R*)-(E)-2-(3-(4-((dimethylamino)methyl)styryl)-1H-indazol-6-yl)spiro[cyclopropane-1,3′-indolin]-2′-one 2,2,2-trifluoroacetate]
% Inhibition @ 10 uM (AMPKalpha): 69% | inhibition at 10 µM (FLT-3): 102% | inhibition at 10 µM (KDR (VEGFR2)): 58% | GI50 [2]: 1000 to 10000 nM | GI50 ([5]; read-out: Cell Line GI50 Range SW-620, SW620 colon cancer cell line): 100 to 1000 nM

O=C1Nc2ccccc2[C@@]12C[C@@H]2c1ccc2c(/C=C/c3ccncc3)n[nH]c2c1 (racemic) [Example A22, (1R*,2S*)-(E)-2-(3-(2-(pyridin-4-yl)vinyl)-1H-indazol-6-yl)spiro-[cyclo-propane-1,3′-indolin]-2′-one]
inhibition at 10 µM (Abl): 97% | inhibition at 10 µM (Akt1/PKBalpha): -1% | inhibition at 10 µM (BMX (Etk)): 71% | inhibition at 10 µM (Brk): 41% | inhibition at 10 µM (CDC2/CDK1 (cycB)): 93% | inhibition at 10 µM (CHK1): 37% | inhibition at 10 µM (CHK2): 4% | inhibition at 10 µM (CSK): 99% | inhibition at 10 µM (CaMK4): -8% | inhibition at 10 µM (ERK (P42mapk)): 11% | inhibition at 10 µM (ERK1): 8% | inhibition at 10 µM (EphB4): 99% | inhibition at 10 µM (FGFR4): 56% | inhibition at 10 µM (Fyn): 87% | inhibition at 10 µM (IGF1R): 22% | inhibition at 10 µM (IRK (InsR)): 21% | inhibition at 10 µM (JNK 2): 32% | inhibition at 10 µM (Lck): 97% | inhibition at 10 µM (Lyn): 99% | inhibition at 10 µM (MAPKAPK2): 4% | inhibition at 10 µM (MEK1/MAP2K1): 12% | inhibition at 10 µM (PDGFRbeta): 88% | inhibition at 10 µM (PDK1): 69% | inhibition at 10 µM (PKA): -6% | inhibition at 10 µM (PKCalpha): 7% | inhibition at 10 µM (PKCbeta 1): 0% | inhibition at 10 µM (PKCbeta 2): 11% | inhibition at 10 µM (PKCgamma): 8% | inhibition at 10 µM (ROCK2): 88% | inhibition at 10 µM (RSK2): 48% | inhibition at 10 µM (Ret): 99% | inhibition at 10 µM (Src): 26% | inhibition at 10 µM (TRKA): 100% | inhibition at 10 µM (c-Met): 97% | inhibition at 10 µM (p38alpha): 32% | inhibition at 10 µM (p38delta): -22% | inhibition at 10 µM (p38gamma): -15% | inhibition at 10 µM (FLT-3): 100% | inhibition at 10 µM (KDR (VEGFR2)): 98% | anti-angiogenic effect (tube formation, % of control tube count) (HUV-EC-C cells): anti-agiogenic effects at submicromolar concentrations
